Test results as given in article PMC4503722, “Novel Phenotypic Outcomes Identified for a Public Collection of Approved Drugs from a Publicly Accessible Panel of Assays” (PLoS ONE, 2015).

Experiments:
DLD-1 = experiment: cells; format: cell-based; conditions: assay number 23
SW480 = experiment: cells; format: cell-based; conditions: assay number 24
[1] = test system: endothelial tube formation in co-cultures of ECFCs and ADSCs treated with VEGF; experiment: cells; format: cell-based, human
hp70S6K1 (RPS6KB1) = biological target: T1, hp70S6K1 (RPS6KB1) (Homo sapiens, UniProt P23443); experiment: Cerep LANCE kinase assay hp70S6K1 (S1 assay 31); format: biochemical; conditions: assay number 31
T1 construct: purchased Cerep (LANCE kinase assay platform, contract assay)

RKO = experiment: cells; format: cell-based; conditions: assay number 29
HT-29 = experiment: cells; format: cell-based; conditions: assay number 28
hJAK2 = biological target: T2, hJAK2 (Homo sapiens, UniProt O60674); experiment: Cerep LANCE kinase assay hJAK2 (S1 assay 33); format: biochemical; conditions: assay number 33
T2 construct: purchased Cerep (LANCE kinase assay platform, contract assay)

[2] = test system: nuclear β-catenin in C2C12 cells; experiment: cells; format: cell-based; conditions: assay number 5; concentration response
HCT116 = experiment: cells; format: cell-based; conditions: assay number 25; basal
Colo320 = experiment: cells; format: cell-based; conditions: assay number 27
hFLT3 = biological target: T3, hFLT3 (Homo sapiens, UniProt P36888); experiment: Cerep LANCE kinase assay hFLT3 (S1 assay 35); format: biochemical; conditions: assay number 35
T3 construct: purchased Cerep (LANCE kinase assay platform, contract assay)

HeLa cells = experiment: cells; format: cell-based; conditions: for Hela CellCycMod PI 2N IC50/EC50: assay number 14; for Hela CellCycMod PI S Phase IC50/EC50: assay number 15; for Hela CellCycMod PI 4N IC50/EC50: assay number 16; for Hela CellCycMod PI MI IC50/EC50: assay number 17; for Hela CellCycMod PI Cell Number IC50/EC50: assay number 18
[3] = test system: HCT116 cells treated with a GSK3β inhibitor; experiment: cells; format: cell-based; conditions: assay number 26; GSK3b inhibitor pretreated
hKDR = biological target: T4, hKDR (Homo sapiens, UniProt P35968); experiment: Cerep LANCE kinase assay hKDR (S1 assay 32); format: biochemical; conditions: assay number 32
T4 construct: purchased Cerep (LANCE kinase assay platform, contract assay)

[4] = test system: alkaline phosphatase (ALP) activity in C2C12 cells; format: cell-based; conditions: assay number 6; concentration response
SNU-C1 = experiment: cells; format: cell-based; conditions: assay number 30
[5] = test system: ECFC/ADSC co-culture cell nuclei number
hGSK3b = biological target: T5, hGSK3b (Homo sapiens, UniProt P49841); experiment: Cerep LANCE kinase assay hGSK3b (S1 assay 34); format: biochemical; conditions: assay number 34
T5 construct: purchased Cerep (LANCE kinase assay platform, contract assay)
T5 sequence (P49841 whole entry): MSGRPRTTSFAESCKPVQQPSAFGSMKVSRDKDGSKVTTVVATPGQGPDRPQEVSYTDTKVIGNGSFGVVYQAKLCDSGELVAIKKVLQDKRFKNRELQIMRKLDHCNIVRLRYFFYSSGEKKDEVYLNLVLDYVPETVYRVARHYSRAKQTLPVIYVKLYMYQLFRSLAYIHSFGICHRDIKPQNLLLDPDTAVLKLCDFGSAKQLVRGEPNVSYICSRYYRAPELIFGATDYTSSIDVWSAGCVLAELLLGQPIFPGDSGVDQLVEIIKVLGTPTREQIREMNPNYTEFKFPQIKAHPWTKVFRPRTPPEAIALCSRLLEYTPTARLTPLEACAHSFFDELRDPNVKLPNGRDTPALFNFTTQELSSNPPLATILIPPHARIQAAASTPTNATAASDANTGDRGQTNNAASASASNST

T4 sequence (P35968 20-1356): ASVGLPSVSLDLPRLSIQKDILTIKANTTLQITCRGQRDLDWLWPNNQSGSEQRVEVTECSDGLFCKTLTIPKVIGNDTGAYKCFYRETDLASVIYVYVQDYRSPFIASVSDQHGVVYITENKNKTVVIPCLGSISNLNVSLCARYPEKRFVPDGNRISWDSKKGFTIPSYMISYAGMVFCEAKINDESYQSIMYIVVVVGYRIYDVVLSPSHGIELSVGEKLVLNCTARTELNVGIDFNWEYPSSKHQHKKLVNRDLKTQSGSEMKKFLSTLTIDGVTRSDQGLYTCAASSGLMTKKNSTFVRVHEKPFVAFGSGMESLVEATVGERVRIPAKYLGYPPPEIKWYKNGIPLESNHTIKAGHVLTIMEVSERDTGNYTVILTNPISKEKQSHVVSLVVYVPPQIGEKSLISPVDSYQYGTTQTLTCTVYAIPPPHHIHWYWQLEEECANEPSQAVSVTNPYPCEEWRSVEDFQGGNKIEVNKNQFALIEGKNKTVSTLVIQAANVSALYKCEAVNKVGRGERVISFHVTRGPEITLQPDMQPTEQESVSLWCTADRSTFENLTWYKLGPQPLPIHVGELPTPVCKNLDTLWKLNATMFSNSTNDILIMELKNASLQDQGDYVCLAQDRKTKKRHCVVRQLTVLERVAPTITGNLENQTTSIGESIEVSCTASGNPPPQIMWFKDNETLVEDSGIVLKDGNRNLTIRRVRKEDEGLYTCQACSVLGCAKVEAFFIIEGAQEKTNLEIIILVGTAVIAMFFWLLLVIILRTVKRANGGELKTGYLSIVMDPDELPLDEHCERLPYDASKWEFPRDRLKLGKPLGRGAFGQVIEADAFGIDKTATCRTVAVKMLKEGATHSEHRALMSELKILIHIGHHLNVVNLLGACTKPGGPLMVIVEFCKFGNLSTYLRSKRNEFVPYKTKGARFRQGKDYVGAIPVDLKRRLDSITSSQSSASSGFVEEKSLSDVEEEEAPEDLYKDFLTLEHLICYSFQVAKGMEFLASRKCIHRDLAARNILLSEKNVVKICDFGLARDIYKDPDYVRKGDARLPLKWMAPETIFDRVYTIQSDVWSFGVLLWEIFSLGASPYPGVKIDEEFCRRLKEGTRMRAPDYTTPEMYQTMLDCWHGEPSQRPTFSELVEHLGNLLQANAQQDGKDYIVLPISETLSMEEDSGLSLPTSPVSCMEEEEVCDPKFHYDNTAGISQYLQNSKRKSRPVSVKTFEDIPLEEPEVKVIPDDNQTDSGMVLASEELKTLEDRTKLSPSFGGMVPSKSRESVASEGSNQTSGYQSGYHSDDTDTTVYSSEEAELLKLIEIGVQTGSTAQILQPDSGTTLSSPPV
T3 sequence (P36888 27-993): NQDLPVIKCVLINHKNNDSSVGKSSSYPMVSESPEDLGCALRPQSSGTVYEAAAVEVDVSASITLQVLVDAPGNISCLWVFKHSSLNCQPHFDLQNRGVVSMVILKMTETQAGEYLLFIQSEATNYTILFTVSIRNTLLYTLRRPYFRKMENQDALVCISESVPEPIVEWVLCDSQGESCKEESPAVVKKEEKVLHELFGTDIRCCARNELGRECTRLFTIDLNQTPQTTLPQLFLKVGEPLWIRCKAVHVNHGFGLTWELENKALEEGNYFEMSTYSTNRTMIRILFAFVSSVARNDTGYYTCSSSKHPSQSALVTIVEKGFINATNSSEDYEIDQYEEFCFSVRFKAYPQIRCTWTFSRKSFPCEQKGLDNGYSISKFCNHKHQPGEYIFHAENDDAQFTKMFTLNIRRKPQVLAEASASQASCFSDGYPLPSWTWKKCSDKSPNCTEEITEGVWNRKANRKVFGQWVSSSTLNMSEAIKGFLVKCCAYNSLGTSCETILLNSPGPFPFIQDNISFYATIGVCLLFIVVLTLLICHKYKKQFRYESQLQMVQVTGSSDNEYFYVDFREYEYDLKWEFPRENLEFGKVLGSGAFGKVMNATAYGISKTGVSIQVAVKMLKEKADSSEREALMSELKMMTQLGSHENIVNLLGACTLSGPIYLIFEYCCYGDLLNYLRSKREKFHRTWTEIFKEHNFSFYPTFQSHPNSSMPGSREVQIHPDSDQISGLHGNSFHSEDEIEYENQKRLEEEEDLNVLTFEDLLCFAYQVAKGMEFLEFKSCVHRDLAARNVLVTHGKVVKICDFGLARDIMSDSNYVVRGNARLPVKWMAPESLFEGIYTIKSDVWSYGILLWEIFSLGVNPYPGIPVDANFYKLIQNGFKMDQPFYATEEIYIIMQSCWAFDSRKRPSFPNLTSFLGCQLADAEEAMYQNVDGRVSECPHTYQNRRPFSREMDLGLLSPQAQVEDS
T2 sequence (O60674 whole entry): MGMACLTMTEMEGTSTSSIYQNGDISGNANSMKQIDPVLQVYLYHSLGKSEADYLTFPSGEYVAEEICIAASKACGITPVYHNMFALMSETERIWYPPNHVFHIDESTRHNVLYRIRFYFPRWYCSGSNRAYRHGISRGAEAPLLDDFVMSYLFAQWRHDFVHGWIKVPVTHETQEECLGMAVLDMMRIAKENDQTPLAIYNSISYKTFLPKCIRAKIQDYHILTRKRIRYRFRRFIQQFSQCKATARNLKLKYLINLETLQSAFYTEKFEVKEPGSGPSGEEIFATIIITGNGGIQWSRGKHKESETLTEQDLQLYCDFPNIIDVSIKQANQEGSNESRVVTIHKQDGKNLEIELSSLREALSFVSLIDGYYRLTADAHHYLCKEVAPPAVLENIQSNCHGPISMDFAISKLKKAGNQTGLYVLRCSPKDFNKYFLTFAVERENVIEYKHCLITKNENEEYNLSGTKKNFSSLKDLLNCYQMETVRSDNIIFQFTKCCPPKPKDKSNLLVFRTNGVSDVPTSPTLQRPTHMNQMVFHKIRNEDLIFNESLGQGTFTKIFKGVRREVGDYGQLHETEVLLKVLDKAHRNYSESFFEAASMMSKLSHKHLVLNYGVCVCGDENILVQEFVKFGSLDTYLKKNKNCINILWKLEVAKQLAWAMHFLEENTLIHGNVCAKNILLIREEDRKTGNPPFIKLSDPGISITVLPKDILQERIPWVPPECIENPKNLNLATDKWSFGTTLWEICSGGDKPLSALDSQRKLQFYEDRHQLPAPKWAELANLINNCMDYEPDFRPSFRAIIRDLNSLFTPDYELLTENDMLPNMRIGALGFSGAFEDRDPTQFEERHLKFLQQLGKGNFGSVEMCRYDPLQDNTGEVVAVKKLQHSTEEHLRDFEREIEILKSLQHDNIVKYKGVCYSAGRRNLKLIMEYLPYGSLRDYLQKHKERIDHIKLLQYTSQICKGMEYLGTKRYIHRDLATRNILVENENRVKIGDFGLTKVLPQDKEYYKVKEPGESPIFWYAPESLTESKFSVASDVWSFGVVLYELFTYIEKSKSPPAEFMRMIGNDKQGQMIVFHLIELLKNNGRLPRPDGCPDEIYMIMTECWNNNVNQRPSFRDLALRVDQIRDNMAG
T1 sequence (P23443 whole entry): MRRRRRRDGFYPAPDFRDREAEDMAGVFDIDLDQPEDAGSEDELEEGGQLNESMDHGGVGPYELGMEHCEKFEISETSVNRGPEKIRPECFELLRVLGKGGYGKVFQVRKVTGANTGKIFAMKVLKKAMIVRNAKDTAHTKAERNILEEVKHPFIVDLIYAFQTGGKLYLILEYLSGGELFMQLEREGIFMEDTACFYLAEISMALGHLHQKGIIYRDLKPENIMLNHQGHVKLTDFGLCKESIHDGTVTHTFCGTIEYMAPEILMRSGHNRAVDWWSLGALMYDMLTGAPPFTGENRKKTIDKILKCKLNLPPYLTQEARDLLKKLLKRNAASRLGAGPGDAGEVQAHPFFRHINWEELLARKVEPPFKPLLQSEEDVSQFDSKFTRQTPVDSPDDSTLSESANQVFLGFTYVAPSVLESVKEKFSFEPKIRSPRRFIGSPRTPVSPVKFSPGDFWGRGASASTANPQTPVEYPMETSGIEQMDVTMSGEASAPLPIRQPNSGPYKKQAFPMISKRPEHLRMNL

Row | SMILES | VEGF_ADSC\ECFC Angio CD31 TubeArea IC50/EC50 [1] | hp70S6K1 LANCE IC50/EC50 (hp70S6K1 (RPS6KB1)) | hJAK2 LANCE IC50/EC50 (hJAK2) | WntCondMedia_bCatenin C2C12 IC50/EC50 [2] | Basal_Viability ATP HCT116 IC50/EC50 (HCT116) | hFLT3 LANCE IC50/EC50 (hFLT3) | Hela CellCycMod PI 2N IC50/EC50 (HeLa cells) | Hela CellCycMod PI S Phase IC50/EC50 (HeLa cells) | Hela CellCycMod PI 4N IC50/EC50 (HeLa cells) | Hela CellCycMod PI MI IC50/EC50 (HeLa cells) | Hela CellCycMod PI Cell Number IC50/EC50 (HeLa cells) | GSK3b inh pretreated_Viability ATP HCT116 IC50/EC50 [3] | hKDR LANCE IC50/EC50 (hKDR) | WntCondMedia_Alk Phos C2C12 IC50/EC50 [4] | VEGF_ADSC\ECFC Angio Hoechst NucArea IC50/EC50 [5] | hGSK3b LANCE IC50/EC50 (hGSK3b) | Basal_Viability ATP DLD-1 IC50/EC50 (DLD-1) | Basal_Viability ATP SW480 IC50/EC50 (SW480) | Basal_Viability ATP RKO IC50/EC50 (RKO) | Basal_Viability ATP HT-29 IC50/EC50 (HT-29) | other results
1 | Cc1cc(=O)c2c(O)c3c(O)cc(=O)c4c3c3c(cc(O)c1c23)C(C)(C)C=4O [NCGC00160275-03] | 0.1005 µM | > 20 µM | > 20 µM | 1.0715 µM | 0.07747 µM | 1.97 µM | > 10 µM | > 10 µM | > 10 µM | > 10 µM | 1.0003 µM | 0.05735 µM | > 20 µM | 2.9111 µM | 2.074 µM | 6.9 µM | – | – | – | – | Basal_Viability ATP DLD-1 IC50/EC50 (DLD-1; basal): 0.07089 µM; Basal_Viability ATP SW480 IC50/EC50 (SW480; basal): 0.05797 µM; Basal_Viability ATP RKO IC50/EC50 (RKO; basal): 0.0754 µM; Basal_Viability ATP HT-29 IC50/EC50 (HT-29; basal): 3.006 µM; Basal_Viability ATP Colo 320 IC50/EC50 (Colo320; basal): 0.08199 µM; Basal_Viability ATP SNU-C1 IC50/EC50 (SNU-C1; basal): 0.3321 µM
2 | Cc1nc2ccc(CN(C)c3ccc(C(=O)N[C@@H](CCC(=O)O)C(=O)O)s3)cc2c(=O)[nH]1 [NCGC00229704-01] | 0.3544 µM | > 20 µM | > 20 µM | 0.0127 µM | 0.00424 µM | > 20 µM | > 10 µM | – | > 10 µM | > 10 µM | > 10 µM | 0.0023 µM | > 20 µM | 0.0042 µM | > 10 µM | 3.99 µM | > 20 µM | 0.001 µM | 0.00288 µM | > 20 µM | Basal_Viability ATP Colo 320 IC50/EC50 (Colo320): > 20 µM; Basal_Viability ATP SNU-C1 IC50/EC50 (SNU-C1): > 20 µM
3 | COc1ccc2cc1Oc1ccc(cc1)C[C@H]1c3c(cc4c(c3Oc3cc5c(cc3OC)CCN(C)[C@@H]5C2)OCO4)CCN1C [NCGC00161621-03] | 3.0213 µM | > 20 µM | > 20 µM | 5.6301 µM | 9.5422 µM | > 20 µM | > 10 µM | > 10 µM | > 10 µM | > 10 µM | 5.5384 µM | 3.567 µM | > 20 µM | 2.0494 µM | > 10 µM | > 20 µM | 12.3697 µM | 0.308 µM | 3.787 µM | 1.365 µM | Basal_Viability ATP Colo 320 IC50/EC50 (Colo320): 1.426 µM; Basal_Viability ATP SNU-C1 IC50/EC50 (SNU-C1): 7.483 µM
